Data: patent US8937077B2, “Bicyclic diamines as janus kinase inhibitors” (Merck Sharp & Dohme Corp., priority 2010, dated 2015)
Like-named read-outs stand apart in the source and are kept apart here.

Target: T1, Jak1 (Homo sapiens, UniProt P23458)
T1 construct: using a recombinant purified GST-tagged catalytic domain for each enzyme; GST; purchased Invitrogen M4290
Assay: Jak Biochemical HTRF Assay (Jak1)
Conditions: recombinant GST-tagged catalytic domain
How it was run: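 Recombinant GST-tagged Jak1 catalytic domain was preincubated with compound and peptide substrate for 30 min at room temperature, and the reaction was then started with ATP and run 120 min. Buffer contained 2 mM DTT and 0.05% BSA. Read-out was HTRF (665/615 nm) with Eu-pY20 antibody and streptavidin-Dylight, and IC50 values came from 4-parameter fits of percent inhibition.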

[1] = IC50 class, read-out: Jak1 activity
[2] = 31.8 μM ATP, read-out: Representative IC50 values

T1 sequence (P23458 875-1153 limits assumed): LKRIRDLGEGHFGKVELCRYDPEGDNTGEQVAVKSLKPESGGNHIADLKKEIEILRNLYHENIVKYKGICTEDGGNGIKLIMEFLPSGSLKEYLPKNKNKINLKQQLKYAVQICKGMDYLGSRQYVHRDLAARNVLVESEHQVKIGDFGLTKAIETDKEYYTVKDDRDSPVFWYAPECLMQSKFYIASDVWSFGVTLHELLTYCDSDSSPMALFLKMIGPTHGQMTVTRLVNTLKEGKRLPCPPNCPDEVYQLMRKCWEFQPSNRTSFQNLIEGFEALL

IC50 [1] [nM]	IC50 [2] [nM]	Compound
10 to 100	–	CC(C)S(=O)(=O)N1CCC[C@@H]2[C@H]1CCN2c1ncnc2[nH]ccc12 [Example 32-1, 4-{(3aR,7aR)-4-[(1-methylethyl)sulfonyl]octahydro-1H-pyrrolo[3,2-b]pyridin-1-yl}-7H-pyrrolo[2,3-d]pyrimidine]
10 to 100	39	COC(=O)c1ccc(CNC(=O)N2CCC[C@@H]3[C@H]2CCN3c2ncnc3[nH]ccc23)cc1 [Example 23, methyl 4-[({[(3aR,7aR)-1-(7H-pyrrolo[2,3-d]pyrimidin-4-yl)octahydro-4H-pyrrolo[3,2-b]-pyridine-4-yl]carbonyl}amino)methyl]benzoate]
10 to 100	–	O=C(c1cccc(Cl)c1)N1CCC[C@@H]2[C@H]1CCN2c1ncnc2[nH]ccc12 [Example 29-18, 4-{(3aR,7aR)-4-[(3-chlorophenyl)carbonyl]octahydro-1H-pyrrolo[3,2-b]pyridin-1-yl}-7H-pyrrolo[2,3-d]pyrimidine]
100 to 1000	–	O=C(c1ccccn1)N1CCC[C@@H]2[C@H]1CCN2c1ncnc2[nH]ccc12 [Example 29-11, 4-[(3aR,7aR)-4-(pyridin-2-ylcarbonyl)octahydro-1H-pyrrolo[3,2-b]pyridin-1-yl]-7H-pyrrolo[2,3-d]pyrimidine]
1 to 10	2	COC(=O)c1ccc(COC(=O)N2CCC[C@@H]3[C@H]2CCN3c2ncnc3[nH]ccc23)cc1 [Example 4, 4-(methoxycarbonyl)benzyl (3aR,7aR)-1-(7H-pyrrolo[2,3-d]pyrimidin-4-yl)octahydro-4H-pyrrolo[3,2-b]pyridine-4-carboxylate]
10 to 100	–	O=C(c1ccnc2ccccc12)N1CCC[C@@H]2[C@H]1CCN2c1ncnc2[nH]ccc12 [Example 29-61, 4-{[(3aR,7aR)-1-(7H-pyrrolo[2,3-d]pyrimidin-4-yl)octahydro-4H-pyrrolo[3,2-b]pyridin-4-yl]carbonyl}quinoline]
100 to 1000	–	CN1CCN(c2ccc(C(=O)N3CCCC4C3CCN4c3ncnc4[nH]ccc34)cc2)CC1 (stereo not shown) [Example 29-6, 4-(4-{[4-(4-methylpiperazin-1-yl)phenyl]carbonyl}octahydro-1H-pyrrolo[3,2-b]pyridin-1-yl)-7H-pyrrolo[2,3-d]pyrimidine]
100 to 1000	–	c1ccc(-c2nnc(N3CCCC4C3CCN4c3ncnc4[nH]ccc34)o2)cc1 [Example 31, (3aS,7aS and 3aR,7aR) 4-[4-(5-phenyl-1,3,4-oxadiazol-2-yl)octahydro-1H-pyrrolo[3,2-b]pyridin-1-yl]-7H-pyrrolo[2,3-d]pyrimidine]
100 to 1000	132	O=C(c1cn2cccnc2n1)N1CCC[C@@H]2[C@H]1CCN2c1ncnc2[nH]ccc12 [Example 29-49, 4-[(3aR,7aR)-4-(imidazo[1,2-a]pyrimidin-2-ylcarbonyl)octahydro-1H-pyrrolo[3,2-b]pyridin-1-yl]-7H-pyrrolo[2,3-d]pyrimidine]
100 to 1000	–	O=C(OCCc1cccc2ccccc12)N1CCC[C@@H]2[C@H]1CCN2c1ncnc2[nH]ccc12 [Example 3-34, 2-naphthalen-1-ylethyl (3aR,7aR)-1-(7H-pyrrolo[2,3-d]pyrimidin-4-yl)octahydro-4H-pyrrolo[3,2-b]pyridine-4-carboxylate]
100 to 1000	–	O=C(Cn1cc2ccccc2n1)N1CCC[C@@H]2[C@H]1CCN2c1ncnc2[nH]ccc12 [Example 29-54, 4-[(3aR,7aR)-4-(2H-indazol-2-ylacetyl)octahydro-1H-pyrrolo[3,2-b]pyridin-1-yl]-7H-pyrrolo[2,3-d]pyrimidine]
100 to 1000	–	O=C(c1cccc2cccnc12)N1CCC[C@@H]2[C@H]1CCN2c1ncnc2[nH]ccc12 [Example 29-51, 8-{[(3aR,7aR)-1-(7H-pyrrolo[2,3-d]pyrimidin-4-yl)octahydro-4H-pyrrolo[3,2-b]pyridin-4-yl]carbonyl}quinoline]
10 to 100	–	O=C(O)c1ccc(CCC(=O)N2CCC[C@@H]3[C@H]2CCN3c2ncnc3[nH]ccc23)cc1 [Example 27, 4-{3-oxo-3-[(3aR,7aR)-1-(7H-pyrrolo[2,3-d]pyrimidin-4-yl)octahydro-4H-pyrrolo[3,2-b]pyridin-4-yl]propyl}benzoic acid]
10 to 100	26	N#CCC(=O)N1CCCC2C1CCN2c1ncnc2[nH]ccc12 [Example 12, (3aS,7aS and 3aR,7aR) 3-oxo-3-[1-(7H-pyrrolo[2,3-d]pyrimidin-4-yl)octahydro-4H-pyrrolo[3,2-b]pyridin-4-yl]propanenitrile]
10 to 100	–	O=C(OCC1CCCCC1)N1CCC[C@@H]2[C@H]1CCN2c1ncnc2[nH]ccc12 [Example 3-46, cyclohexylmethyl (3aR,7aR)-1-(7H-pyrrolo[2,3-d]pyrimidin-4-yl)octahydro-4H-pyrrolo[3,2-b]pyridine-4-carboxylate]
100 to 1000	–	O=C(Cn1cnc2ccccc21)N1CCC[C@@H]2[C@H]1CCN2c1ncnc2[nH]ccc12 [Example 29-53, 4-[(3aR,7aR)-4-(1H-benzimidazol-1-ylacetyl)octahydro-1H-pyrrolo[3,2-b]pyridin-1-yl]-7H-pyrrolo[2,3-d]pyrimidine]
10 to 100	–	CC1CCN(Cc2ccccc2)C2CCN(c3ncnc4[nH]ccc34)C12 [Example 21, (3aS,7S,7aS and 3aR,7R,7aR) 4-(4-benzyl-7-methyloctahydro-1H-pyrrolo[3,2-b]pyridin-1-yl)-7H-pyrrolo[2,3-d]pyrimidine]
10 to 100	–	O=C(OCc1ccc2ccccc2c1)N1CCCC2C1CCN2c1ncnc2[nH]ccc12 (stereo not shown) [Example 3-15, naphthalen-2-ylmethyl 1-(7H-pyrrolo[2,3-d]pyrimidin-4-yl)octahydro-4H-pyrrolo[3,2-b]pyridine-4-carboxylate]
10 to 100	–	O=C(OCCc1cc(F)cc(F)c1)N1CCC[C@@H]2[C@H]1CCN2c1ncnc2[nH]ccc12 [Example 3-44, 2-(3,5-difluorophenyl)ethyl (3aR,7aR)-1-(7H-pyrrolo[2,3-d]pyrimidin-4-yl)octahydro-4H-pyrrolo[3,2-b]pyridine-4-carboxylate]
10 to 100	–	O=C(OCCN1CCOCC1)N1CCC[C@@H]2[C@H]1CCN2c1ncnc2[nH]ccc12 [Example 3-39, 2-morpholin-4-ylethyl (3aR,7aR)-1-(7H-pyrrolo[2,3-d]pyrimidin-4-yl)octahydro-4H-pyrrolo[3,2-b]pyridine-4-carboxylate]
10 to 100	–	O=C(OCCc1ccc2c(c1)CCO2)N1CCC[C@@H]2[C@H]1CCN2c1ncnc2[nH]ccc12 [Example 3-28, 2-(2,3-dihydro-1-benzofuran-5-yl)ethyl (3aR,7aR)-1-(7H-pyrrolo[2,3-d]pyrimidin-4-yl)octahydro-4H-pyrrolo[3,2-b]pyridine-4-carboxylate]
10 to 100	–	C[C@H](OC(=O)N1CCCC2C1CCN2c1ncnc2[nH]ccc12)c1ccccc1 (stereo partly drawn) [Example 3-24, (1S)-1-phenylethyl 1-(7H-pyrrolo[2,3-d]pyrimidin-4-yl)octahydro-4H-pyrrolo[3,2-b]-pyridine-4-carboxylate]
10 to 100	–	O=C(C1COc2ccccc2O1)N1CCC[C@@H]2[C@H]1CCN2c1ncnc2[nH]ccc12 (stereo partly drawn) [Example 29-38, 4-[(3aR,7aR)-4-(2,3-dihydro-1,4-benzodioxin-2-ylcarbonyl)octahydro-1H-pyrrolo[3,2-b]pyridin-1-yl]-7H-pyrrolo[2,3-d]pyrimidine]
10 to 100	–	O=C(C1CCCCC1)N1CCC[C@@H]2[C@H]1CCN2c1ncnc2[nH]ccc12 [Example 29-15, 4-[(3aR,7aR)-4-(cyclohexylcarbonyl)octahydro-1H-pyrrolo[3,2-b]pyridin-1-yl]-7H-pyrrolo[2,3-d]pyrimidine]
